This is an account of results in patent publication US20060269491A1, “UVA (> 360-400) and UVB (300-325) specific sunscreens” (priority 2000, published 2006).

The series is described as follows: UV absorbance of sunscreen compositions (FIG. 9). It is filed as physicochemical. From the text:
FIG. 9 depicts the UV absorbance of two specific suncreen compositions.
Thus, to adequately protect human skin from the UV-induced enzymes that degrade the collagen matrix, and which inhibit collagen biosynthesis, a sunscreen formulation must block both radiation of less then 325 nm and that between about 360 nm and 400 nm. In our prior application Ser. No. 09/089,914, we proposed a sunscreen comprising a UVB blocker such as PARSOL MCX and a UVA blocker such as PARSOL 1789. Other UVB blockers known in the art, and in light of the information provided herein, are also suitable. However, various UVA blockers, including PARSOL 1789 and various others such as TINOSORB brand blockers (available from Ciba, Basel, Switzerland) are relatively broadband blockers and while blocking some of the UVA radiation in the >360-400 nm range, are not optimized for that region. […] As noted above, these wavelengths are greater than the 360 nm the industry desires to block with its compounds, because it is generally believed that a broad band absorber will provide the desired blocking effects. To the contrary, we have shown that it is sufficient to block narrow bands of UV radiation, namely 295-325 nm in the UVB, more preferably 305-325 nm, and those wavelengths above 360 nm in the UVA, and that blocking these wavelengths achieves the desired prevention of UV-induced […] of MMPs in human skin.

As for `COc1ccc(C(=O)CC(=O)c2ccc(C(C)(C)C)cc2)cc1` [PARSOL 1789], the UV absorbance result reads like this: (UVA1 area of 340-360 nm) “appears adequate”; (area of 390-400 nm) “almost no absorbance”; (at 370 nm) “falls off”; (to 380 nm) “falls off dramatically”.
